Measurements published in patent US5519012A, “Inclusion complexes of optically active 1,4-dihydropyridines with methyl-β-cyclodextrin” (LEK, tovarna farmacevtskih in kemicnih izdelkov, d.d., …, priority 1992, dated 1996).
Values after ≈ are worked out from the molar mass of the structure shown. Structures can show the parent of a compound that is named as a salt.

How the values were obtained:
physchem = details: water
[1] = Water solubility of racemic and optically active dihydropyridines, free or bound in inclusion complexes (room temperature, filtrates of saturated solutions, liquid chromatography); details: for Water solubility, complex. HE-β-CD: bound in inclusion complex with HE-β-CD (2-hydroxyethyl-cyclodextrin); for Water solubility, complex. HP-β-CD: bound in inclusion complex with HP-β-CD (2-hydroxypropyl-cyclodextrin); for Water solubility, complex. Me-β-CD: bound in inclusion complex with Me-β-CD; for Water solubility, complex. β-CD: bound in inclusion complex with β-CD; for Water solubility of particular enantiomers (in words): (-) compared with (+) nicardipine.HCl; for Water solubility, uncomplex.: free form
[2] = one enantiomer versus the other; literature; cited from earlier work
[3] = by means of DIMEB (heptakis-(2,6-di-O-dimethyl)-β-cyclodextrin); cited from earlier work

Compound | solubility (physchem) | Water solubility, complex. HE-β-CD ([1]; room temperature) | Water solubility, complex. HP-β-CD ([1]; room temperature) | Water solubility, complex. Me-β-CD ([1]; room temperature) | Water solubility, complex. β-CD ([1]; room temperature) | further results
COC(=O)C1=C(C)NC(C)=C(C(=O)OCCN(C)Cc2ccccc2)C1c1cccc([N+](=O)[O-])c1 (racemic) [(±)nicardipine.HCl, 2-(N-benzyl-N-methyl-amino)-ethylmethyl-2,6-dimethyl-4-(3-nitrophenyl) -1,4-dihydropyridine-3,5-dicarboxylatehydrochloride] | 1.5 mg/mL | 53.8 mg/mL | 97.9 mg/mL | 145.8 mg/mL | 54.8 mg/mL | –
CCOC(=O)C1=C(C)NC(C)=C(C(=O)OC)C1c1cccc([N+](=O)[O-])c1 (racemic) [(±)nitrendipine, 3-ethyl-5-methyl-1,4-dihydro-2,6-dimethyl-4-(3-nitrophenyl)-3,5-pyridinedicarboxylate] | 0.0006 mg/mL (≈ 1.66 µM) | – | – | – | – | –
CCOC(=O)C1=C(COCCN)NC(C)=C(C(=O)OC)[C@H]1c1ccccc1Cl (single isomer, unassigned) [R-(-) isomer of amlodipine] | – | – | – | – | – | activity relative to the other enantiomer [2]: substantially higher activity
COC(=O)C1=C(C)NC(C)=C(C(=O)OCCN(C)Cc2ccccc2)C1c1cccc([N+](=O)[O-])c1 (single isomer, unassigned; (+)) [(+) nicardipine] | – | – | – | – | – | activity relative to the other enantiomer [2]: three times higher activity
COC(=O)C1=C(C)NC(C)=C(C(=O)OCCN(C)Cc2ccccc2)C1c1cccc([N+](=O)[O-])c1 (single isomer, unassigned; (+)) [(+)nicardipine.HCl] | – | 52.7 mg/mL | 59.9 mg/mL | 133.1 mg/mL | 15.8 mg/mL | Water solubility of particular enantiomers (in words) [1]: different water solubilities; Water solubility, uncomplex. ([1]; room temperature): 0.4 mg/mL
COC(=O)C1=C(C)NC(C)=C(C(=O)OCCN(C)Cc2ccccc2)C1c1cccc([N+](=O)[O-])c1 (single isomer, unassigned; (-)) [(-)nicardipine.HCl] | – | 54.2 mg/mL | 68.0 mg/mL | 127.4 mg/mL | 15.6 mg/mL | Water solubility of particular enantiomers (in words) [1]: different water solubilities; Water solubility, uncomplex. ([1]; room temperature): 0.1 mg/mL; Water solubility, complex. HP-β-CD (molar ratio 1:2) ([1]; molar ratio of the complex (-)NC.HCl:HP CD amounts to 1:2, room temperature): 130.0 mg/mL
CCOC(=O)C1=C(COCCN)NC(C)=C(C(=O)OC)C1c1ccccc1Cl (centres unmarked) [amlodipine besylate, 3-ethyl-5-methyl-2-[(2-aminoethoxy)methyl]-4-(2-chlorophenyl) 1,4-dihydro-6-methyl-3,5-pyridinedicarboxylate-monobenzensulfonate] | 1.1 mg/mL | 4.5 mg/mL | 17.0 mg/mL | 25.0 mg/mL | 10.0 mg/mL | Water solubility (in words) ([1]; comparison in words, inclusion complexes with Me-β-CD): improved water solubility
CCOC(=O)C1=C(C)NC(C)=C(C(=O)OC)C1c1cccc(Cl)c1Cl (centres unmarked) [felodipine, ethylmethyl-1,4-dihydro-2,6-dimethyl-4-(2,3-dichlorophenyl)-3,5-pyridinedicarboxylate] | 0.0008 mg/mL (≈ 2.08 µM) | – | – | – | – | –
COc1ccc2c(c1)c(CC(=O)O)c(C)n2C(=O)c1ccc(Cl)cc1 [indometacin] | – | – | – | – | – | enhancement of water solubility [3]: 20.4 times
